Laboratory results taken from patent publication US11040035B2, “3-oxo-2,6-diphenyl-2,3-dihydropyridazine-4-carboxamides” (BAYER PHARMA AKTIENGESELLSCHAFT, priority 2016, dated 2021).

What was measured:
AHR [1] = molecular target: T1, AHR (Homo sapiens, UniProt P35869); test: In vitro assay 2: agonism in human cell line (transactivation assay)
T1 sequence (P35869 11-848): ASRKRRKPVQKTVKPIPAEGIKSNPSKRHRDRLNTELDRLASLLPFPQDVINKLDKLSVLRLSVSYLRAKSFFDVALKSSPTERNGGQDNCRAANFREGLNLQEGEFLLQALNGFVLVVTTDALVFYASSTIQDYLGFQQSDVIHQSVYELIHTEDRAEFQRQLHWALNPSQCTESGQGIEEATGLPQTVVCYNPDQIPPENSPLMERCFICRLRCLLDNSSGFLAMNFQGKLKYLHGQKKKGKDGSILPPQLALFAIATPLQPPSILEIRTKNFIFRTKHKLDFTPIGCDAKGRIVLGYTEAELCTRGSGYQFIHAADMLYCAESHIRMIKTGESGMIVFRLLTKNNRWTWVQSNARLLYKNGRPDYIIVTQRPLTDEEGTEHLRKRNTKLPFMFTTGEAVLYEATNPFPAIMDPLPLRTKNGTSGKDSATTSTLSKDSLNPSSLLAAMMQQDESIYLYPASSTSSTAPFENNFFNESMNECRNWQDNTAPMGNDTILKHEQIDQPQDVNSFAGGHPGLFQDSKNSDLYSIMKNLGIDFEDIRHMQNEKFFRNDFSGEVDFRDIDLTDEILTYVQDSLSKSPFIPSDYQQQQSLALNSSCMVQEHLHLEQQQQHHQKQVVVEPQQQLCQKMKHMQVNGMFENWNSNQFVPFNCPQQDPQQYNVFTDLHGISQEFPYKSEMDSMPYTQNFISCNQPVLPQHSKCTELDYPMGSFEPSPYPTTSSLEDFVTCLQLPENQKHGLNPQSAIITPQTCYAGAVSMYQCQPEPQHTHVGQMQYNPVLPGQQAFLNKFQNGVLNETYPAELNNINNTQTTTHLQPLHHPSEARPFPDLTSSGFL

[2] = test system: AHR-regulated gene CYP1A1; test: In vitro assay 3: AHR-regulated CYP1A1 expression in human cell line (U937, qPCR); settings: Homo sapiens, U-937, 6 h, read-out: Assay 3: Hum CYP1A1 Antagonism IC50 [M], U937 cells, 200 μM KA, 6 hours, qPCR
AHR [3] = molecular target: T1, AHR; test: In vitro assay 1: antagonism in human cell line (transactivation assay, kynurenic acid prestimulated); settings: Assay 1: AHR-luc Hum Antagonism IC50 [M], 150 μM kynurenic acid, 20 hours, firefly luciferase
[4] = Assay 2: AHR-luc Hum Agonism IC50 [M], no kynurenic acid, 20 hours, firefly luciferase

Compound	IC50 (AHR [1]; [4])	IC50 [2]	IC50 (AHR [3])	IC50 (AHR [1]; read-out: Assay 2: AHR-luc Hum Agonism IC50, no kynurenic acid, 20 hours, firefly luciferase)
C[C@H](O)[C@H](C)NC(=O)c1cc(-c2ccc(OC(F)(F)F)cc2)nn(-c2cccc(F)c2)c1=O [Example 185, 2-(3-Fluorophenyl)-N-[(2S,3S)-3-hydroxybutan-2-yl]-3-oxo-6-[4-(trifluoromethoxy)phenyl]-2,3-dihydropyridazine-4-carboxamide]	> 2e-05 M	8.06e-08 M	3.9e-08 M	–
CC(C)(CO)NC(=O)c1cc(-c2ccc(Cl)cc2)nn(-c2cccc(F)c2)c1=O [Example 186, 6-(4-Chlorophenyl)-2-(3-fluorophenyl)-N-(1-hydroxy-2-methylpropan-2-yl)-3-oxo-2,3-dihydropyridazine-4-carboxamide]	> 2e-05 M	1.34e-07 M	1.88e-07 M	–
O=C(NC1(CO)CC1)c1cc(-c2ccc(Cl)cc2)nn(-c2cccc(F)c2)c1=O [Example 187, 6-(4-Chlorophenyl)-2-(3-fluorophenyl)-N-[1-(hydroxymethyl)cyclopropyl]-3-oxo-2,3-dihydropyridazine-4-carboxamide]	> 2e-05 M	1.1e-07 M	1.02e-07 M	–
O=C(NCCCO)c1cc(-c2ccc(Cl)cc2)nn(-c2cccc(F)c2)c1=O [Example 189, 6-(4-Chlorophenyl)-2-(3-fluorophenyl)-N-(3-hydroxypropyl)-3-oxo-2,3-dihydropyridazine-4-carboxamide]	> 2e-05 M	2e-06 M	1.86e-07 M	–
O=C(NCC1(O)CCC1)c1cc(-c2ccc(Cl)cc2)nn(-c2cccc(F)c2)c1=O [Example 212, 6-(4-Chlorophenyl)-2-(3-fluorophenyl)-N-[(1-hydroxycyclobutyl)methyl]-3-oxo-2,3-dihydropyridazine-4-carboxamide]	> 2e-05 M	4.92e-08 M	3.59e-08 M	–
O=C(NC1(CO)CCC1)c1cc(-c2ccc(Cl)cc2)nn(-c2cccc(F)c2)c1=O [Example 213, 6-(4-Chlorophenyl)-2-(3-fluorophenyl)-N-[1-(hydroxymethyl)cyclobutyl]-3-oxo-2,3-dihydropyridazine-4-carboxamide]	> 2e-05 M	2.21e-07 M	8.72e-08 M	–
CC(NC(=O)c1cc(-c2ccc(Cl)cc2)nn(-c2cccc(F)c2)c1=O)C(O)C(F)(F)F (stereo not drawn) [Example 218, Stereoisomer no. 1 of 6-(4-chlorophenyl)-2-(3-fluorophenyl)-3-oxo-N-(4,4,4-trifluoro-3-hydroxybutan-2-yl)-2,3-dihydropyridazine-4-carboxamide]	–	1.51e-07 M	6.88e-08 M	> 2e-05 M
O=C(N[C@H](CO)Cc1ccccc1)c1cc(-c2ccc(Cl)cc2)nn(-c2cccc(F)c2)c1=O [Example 220, (−)-6-(4-Chlorophenyl)-2-(3-fluorophenyl)-N-[(2S)-1-hydroxy-3-phenylpropan-2-yl]-3-oxo-2,3-dihydropyridazine-4-carboxamide]	> 2e-05 M	6e-07 M	1.03e-07 M	–
COC[C@H](CO)NC(=O)c1cc(-c2ccc(Cl)cc2)nn(-c2cccc(F)c2)c1=O [Example 229, 6-(4-Chlorophenyl)-2-(3-fluorophenyl)-N-[(2S)-1-hydroxy-3-methoxypropan-2-yl]-3-oxo-2,3-dihydropyridazine-4-carboxamide]	> 2e-05 M	2e-06 M	1.5e-07 M	–
C[C@@H](O)[C@@H](C)NC(=O)c1cc(-c2ccc(Cl)cc2)nn(-c2cccc(F)c2)c1=O [Example 231, 6-(4-Chlorophenyl)-2-(3-fluorophenyl)-N-[(2R,3R)-3-hydroxybutan-2-yl]-3-oxo-2,3-dihydropyridazine-4-carboxamide]	> 2e-05 M	5.77e-08 M	4.72e-08 M	–
C[C@@H](CO)NC(=O)c1cc(-c2ccc(C(F)(F)F)cc2)nn(-c2cccc(F)c2)c1=O [Example 237, 2-(3-Fluorophenyl)-N-[(2S)-1-hydroxypropan-2-yl]-3-oxo-6-[4-(trifluoromethyl)phenyl]-2,3-dihydropyridazine-4-carboxamide]	> 2e-05 M	2.46e-08 M	1.23e-08 M	–
C[C@H](CO)CNC(=O)c1cc(-c2ccc(C(F)(F)F)cc2)nn(-c2cccc(F)c2)c1=O [Example 246, (−)-2-(3-Fluorophenyl)-N-[(2S)-3-hydroxy-2-methylpropyl]-3-oxo-6-[4-(trifluoromethyl)phenyl]-2,3-dihydropyridazine-4-carboxamide]	> 2e-05 M	4.05e-08 M	2.78e-08 M	–
C[C@H](O)CCNC(=O)c1cc(-c2ccc(C(F)(F)F)cc2)nn(-c2cccc(F)c2)c1=O [Example 248, 2-(3-Fluorophenyl)-N-[(3S)-3-hydroxybutyl]-3-oxo-6-[4-(trifluoromethyl)phenyl]-2,3-dihydropyridazine-4-carboxamide]	> 2e-05 M	1.36e-07 M	9.73e-08 M	–
O=C(NCCCO)c1cc(-c2ccc(C(F)(F)F)cc2)nn(-c2cccc(F)c2)c1=O [Example 249, 2-(3-Fluorophenyl)-N-(3-hydroxypropyl)-3-oxo-6-[4-(trifluoromethyl)phenyl]-2,3-dihydropyridazine-4-carboxamide]	> 2e-05 M	1.07e-07 M	8.84e-08 M	–
O=C(NC(CO)CO)c1cc(-c2ccc(C(F)(F)F)cc2)nn(-c2cccc(F)c2)c1=O [Example 250, N-(1,3-Dihydroxypropan-2-yl)-2-(3-fluorophenyl)-3-oxo-6-[4-(trifluoromethyl)phenyl]-2,3-dihydropyridazine-4-carboxamide]	> 2e-05 M	7.24e-08 M	4.69e-08 M	–
O=C(N[C@H](CO)Cc1ccccc1)c1cc(-c2ccc(C(F)(F)F)cc2)nn(-c2cccc(F)c2)c1=O [Example 251, 2-(3-Fluorophenyl)-N-[(2S)-1-hydroxy-3-phenylpropan-2-yl]-3-oxo-6-[4-(trifluoromethyl)phenyl]-2,3-dihydropyridazine-4-carboxamide]	> 2e-05 M	3.67e-08 M	5.09e-06 M	–
CC(C)(O)CNC(=O)c1cc(-c2ccc(C(F)(F)F)cc2)nn(-c2cccc(F)c2)c1=O [Example 256, 2-(3-Fluorophenyl)-N-(2-hydroxy-2-methylpropyl)-3-oxo-6-[4-(trifluoromethyl)phenyl]-2,3-dihydropyridazine-4-carboxamide]	> 2e-05 M	2.83e-08 M	1.44e-08 M	–
COC[C@H](CO)NC(=O)c1cc(-c2ccc(C(F)(F)F)cc2)nn(-c2cccc(F)c2)c1=O [Example 257, (+)-2-(3-Fluorophenyl)-N-[(2S)-1-hydroxy-3-methoxypropan-2-yl]-3-oxo-6-[4-(trifluoromethyl)phenyl]-2,3-dihydropyridazine-4-carboxamide]	> 2e-05 M	1.34e-07 M	6.37e-08 M	–
COC[C@@H](CO)NC(=O)c1cc(-c2ccc(C(F)(F)F)cc2)nn(-c2cccc(F)c2)c1=O [Example 258, (−)-2-(3-Fluorophenyl)-N-[(2R)-1-hydroxy-3-methoxypropan-2-yl]-3-oxo-6-[4-(trifluoromethyl)phenyl]-2,3-dihydropyridazine-4-carboxamide]	> 2e-05 M	3.71e-08 M	3.01e-08 M	–
O=C(NC[C@H](O)CO)c1cc(-c2ccc(C(F)(F)F)cc2)nn(-c2cccc(F)c2)c1=O [Example 264, (−)-N-[(2S)-2,3-Dihydroxypropyl]-2-(3-fluorophenyl)-3-oxo-6-[4-(trifluoromethyl)phenyl]-2,3-dihydropyridazine-4-carboxamide]	> 2e-05 M	8.01e-08 M	7.05e-08 M	–
O=C(NC[C@@H](O)CO)c1cc(-c2ccc(C(F)(F)F)cc2)nn(-c2cccc(F)c2)c1=O [Example 265, (+)-N-[(2R)-2,3-Dihydroxypropyl]-2-(3-fluorophenyl)-3-oxo-6-[4-(trifluoromethyl)phenyl]-2,3-dihydropyridazine-4-carboxamide]	> 2e-05 M	2.15e-07 M	6.04e-08 M	–
CC(C)(C)[C@@H](CO)NC(=O)c1cc(-c2ccc(Cl)cc2)nn(-c2cccc(F)c2)c1=O [Example 272, 6-(4-Chlorophenyl)-2-(3-fluorophenyl)-N-[(2S)-1-hydroxy-3,3-dimethylbutan-2-yl]-3-oxo-2,3-dihydropyridazine-4-carboxamide]	> 2e-05 M	2.37e-08 M	3.6e-08 M	–
